Earlier results, collected in patent US20240398763A1, “ORAL DOSAGE FORM CONTAINING ONCOLOGICAL ACTIVE INGREDIENT” (OWP Pharmaceuticals, Inc., priority 2023, published 2024).
In brackets after ≈: the same amount, converted by molar mass. Where a name gives a salt, the structure may show the parent alone. Read-outs that look alike come from different tables or passages of the source.

[1] = in water / aqueous media, in words

Compound | Solubility [1] | also measured
CCN1CCN(Cc2ccc(Nc3ncc(F)c(-c4cc(F)c5nc(C)n(C(C)C)c5c4)n3)nc2)CC1 [abemaciclib] | insoluble in water | 
C=C(F)C(=O)N1CCN(c2nc(OC[C@@H]3CCCN3C)nc3c2CCN(c2cccc4cccc(Cl)c24)C3)C[C@@H]1CC#N [adagrasib] |  | Solubility (aqueous media, pH 7.4): to <0.010 mg/mL; Solubility (pH 1.2): from >262 mg/mL
CN(C)C/C=C/C(=O)Nc1cc2c(Nc3ccc(F)c(Cl)c3)ncnc2cc1O[C@H]1CCOC1 [afatinib] | water soluble | 
CCc1cc2c(cc1N1CCC(N3CCOCC3)CC1)C(C)(C)c1[nH]c3cc(C#N)ccc3c1C2=O [alectinib] | insoluble in water | 
Cc1nc(NC(=O)N2CCC[C@H]2C(N)=O)sc1-c1ccnc(C(C)(C)C(F)(F)F)c1 [alpelisib] | insoluble in water | 
CC(C)(C#N)c1cc(Cn2cncn2)cc(C(C)(C)C#N)c1 [anastrozole, α,α,α′,α′-tetramethyl-5-(1H-1,2,4-triazol-1-ylmethyl)-1,3-benzenediacetonitrile, reference compound] |  | Solubility (at 25° C.): solubility (0.5 mg/mL
O=C(Nc1ccc(OC(F)(F)Cl)cc1)c1cnc(N2CC[C@@H](O)C2)c(-c2ccn[nH]2)c1 [asciminib] | insoluble in water | 
Cn1cc(-c2cc3c(N4CCN(c5ncc([C@@](C)(N)c6ccc(F)cc6)cn5)CC4)ncnn3c2)cn1 [avapritinib] | insoluble in water | 
CNC(=O)c1ccccc1Sc1ccc2c(/C=C/c3ccccn3)n[nH]c2c1 [axitinib] |  | Solubility (aqueous media over the range pH 1.1 to pH 7.8): excess of 0.2 μg/mL
Nc1ncn([C@@H]2O[C@H](CO)[C@@H](O)[C@H]2O)c(=O)n1 [azacitidine] | water soluble | 
CS(=O)(=O)c1ccc(Oc2cc(F)cc(C#N)c2)c2c1[C@H](O)[C@H](F)[C@@H]2F [belzutifan] | insoluble in water | 
C=C(c1ccc(C(=O)O)cc1)c1cc2c(cc1C)C(C)(C)CCC2(C)C [bexarotene] | insoluble in water | 
Cn1cnc2c(F)c(Nc3ccc(Br)cc3F)c(C(=O)NOCCO)cc21 [binimetinib] | Slightly soluble at pH 1, | 
COc1cc(N2CCC(N3CCN(C)CC3)CC2)ccc1Nc1ncc(Cl)c(Nc2ccccc2P(C)(C)=O)n1 [brigatinib] | insoluble in water | 
CS(=O)(=O)OCCCCOS(C)(=O)=O [busulfan] | insoluble in water | 
CCCCCOC(=O)Nc1nc(=O)n([C@@H]2O[C@H](C)C(O)C2O)cc1F (stereo partly drawn) [capecitabine, pentyl ester [1-(5-deoxy-β-d-ribofuranosyl)-5-fluoro-1,2-dihydro-2-oxo-4-pyrimidinyl]-carbamic acid, reference compound] |  | Solubility (at 25° C.): 6 mg/mL at 25 °C
Cc1cc(Nc2ncc(Cl)c(Nc3ccccc3S(=O)(=O)C(C)C)n2)c(OC(C)C)cc1C1CCNCC1 [ceritinib] | insoluble in water | 
O=C(O)CCCc1ccc(N(CCCl)CCCl)cc1 [chlorambucil] | insoluble in water | 
C[C@@H](Oc1cc(-c2cnn(C3CCNCC3)c2)cnc1N)c1c(Cl)ccc(F)c1Cl [crizotinib] |  | Solubility (pH 1.6): greater than 10 mg/mL
O=P1(N(CCCl)CCCl)NCCCO1 (centres unmarked) [cyclophosphamide] | water soluble | 
COc1cc2ncnc(Nc3ccc(F)c(Cl)c3)c2cc1NC(=O)/C=C/CN1CCCCC1 [dacomitinib] | insoluble in water | 
Cc1nc(Nc2ncc(C(=O)Nc3c(C)cccc3Cl)s2)cc(N2CCN(CCO)CC2)n1 [dasatinib] | insoluble in water | 

Compound | Solubility [1] | also measured
Nc1ncn([C@H]2C[C@H](O)[C@@H](CO)O2)c(=O)n1 [decitabine] |  | Solubility (condition not given): 22.5 mg/mL; unknown
CC(C)(O)CNc1nc(Nc2ccnc(C(F)(F)F)c2)nc(-c2cccc(C(F)(F)F)n2)n1 [enasidenib] | practically insoluble | Solubility (aqueous solutions across physiological pH range (pH 1.2 and 7.4)): (solubility ≤74 mcg/mL)
COC(=O)N[C@@H](C)CNc1nccc(-c2cn(C(C)C)nc2-c2cc(Cl)cc(NS(C)(=O)=O)c2F)n1 [encorafenib] | slightly soluble at pH 1, | 
CN1CCN(c2ccc(C(=O)Nc3n[nH]c4ccc(Cc5cc(F)cc(F)c5)cc34)c(NC3CCOCC3)c2)CC1 [entrectinib] | insoluble in water | 
C[C@]12CC[C@@H]3c4ccc(OC(=O)N(CCCl)CCCl)cc4CC[C@H]3[C@@H]1CC[C@@H]2OP(=O)(O)O [estramustine phosphate] | water soluble | 
CO[C@H]1C[C@@H]2CC[C@@H](C)[C@@](O)(O2)C(=O)C(=O)N2CCCC[C@H]2C(=O)O[C@H]([C@H](C)C[C@@H]2CC[C@@H](OCCO)[C@H](OC)C2)CC(=O)[C@H](C)/C=C(\C)[C@@H](O)[C@@H](OC)C(=O)[C@H](C)C[C@H](C)/C=C/C=C/C=C/1C [everolimus] | insoluble in water | 
Cc1cnc(Nc2ccc(OCCN3CCCC3)cc2)nc1Nc1cccc(S(=O)(=O)NC(C)(C)C)c1 [fedratinib] |  | Solubility (pH 1): condition (>100 mg/mL; Solubility (pH 7.4): (4 mcg/mL at pH 7.4)
Nc1nc(F)nc2c1ncn2[C@@H]1O[C@H](COP(=O)(O)O)[C@@H](O)[C@@H]1O [fludarabine phosphate] |  | Solubility (condition not given): 3 mg/mL
CC(C)C(=O)Nc1ccc([N+](=O)[O-])c(C(F)(F)F)c1 [flutamide] | insoluble in water | 
C=CC(=O)N1CC[C@H](n2nc(C#Cc3cc(OC)cc(OC)c3)c3c(N)ncnc32)C1 [futibatinib] | insoluble in water | 
CN1CC[C@@H](NC(=O)Nc2ccc(C#N)cc2)C[C@@H]1c1nc2ccccc2[nH]1 [glasdegib] |  | Solubility (condition not given): 1.7 mg/mL (≈ 4540 µM)
NC(=O)NO [hydroxyurea] |  | Solubility (condition not given): 15 mg/mL (≈ 197000 µM)
CCCCCN(C)CCC(O)(P(=O)(O)O)P(=O)(O)O [ibandronate sodium] | water soluble | 
CS(=O)(=O)CCNCc1ccc(-c2ccc3ncnc(Nc4ccc(OCc5cccc(F)c5)c(Cl)c4)c3c2)o1 [lapatinib] |  | Solubility (condition not given): 0.007 mg/mL (≈ 12 µM)
O=C(Nc1cnn2ccc(N3CCC[C@@H]3c3cc(F)ccc3F)nc12)N1CC[C@H](O)C1 [larotrectinib] |  | Aqueous solubility (at 37° C., in words): freely soluble at pH 6.8)
Nc1cccc2c1CN(C1CCC(=O)NC1=O)C2=O (centres unmarked) [lenalidomide] | insoluble in water | 
COc1cc2nccc(Oc3ccc(NC(=O)NC4CC4)c(Cl)c3)c2cc1C(N)=O [lenvatinib] | slightly soluble in water | 
N[C@@H](Cc1cc(I)c(Oc2cc(I)c(O)c(I)c2)c(I)c1)C(=O)O [levothyroxine sodium] | insoluble in water | 
O=NN(CCCl)C(=O)NC1CCCCC1 [lomustine] | insoluble in water | 
CC(=O)O[C@]1(C(C)=O)CC[C@H]2[C@@H]3C[C@H](C)C4=CC(=O)CC[C@]4(C)[C@H]3CC[C@@]21C [medroxyprogesterone acetate] | insoluble in water | 
Sc1ncnc2nc[nH]c12 [mercaptopurine] | insoluble in water | 
CN(Cc1cnc2nc(N)nc(N)c2n1)c1ccc(C(=O)N[C@@H](CCC(=O)O)C(=O)O)cc1 [methotrexate] | insoluble in water | 

Compound | Solubility [1] | also measured
CO[C@@H]1[C@H](N(C)C(=O)c2ccccc2)C[C@H]2O[C@]1(C)n1c3ccccc3c3c4c(c5c6ccccc6n2c5c31)C(=O)NC4 [midostaurin] | insoluble in water | 
Clc1ccc(C(c2ccccc2Cl)C(Cl)Cl)cc1 (centres unmarked) [mitotane] | insoluble in water | 
C=CC(=O)Nc1cc(Nc2ncc(C(=O)OC(C)C)c(-c3cn(C)c4ccccc34)n2)c(OC)cc1N(C)CCN(C)C [mobocertinib] |  | Solubility (pH 1.0 solution at 37° C.): solubility of 152 mg/mL
CCOc1cc2ncc(C#N)c(Nc3ccc(OCc4ccccn4)c(Cl)c3)c2cc1NC(=O)/C=C/CN(C)C [neratinib] |  | Solubility (approximate pH 5.0 and above): (0.08 mg/mL or less); Solubility (pH 1.2): 1.2 (32.90 mg/mL) and
O=C(c1cc(Cc2n[nH]c(=O)c3ccccc23)ccc1F)N1CCN(C(=O)C2CC2)CC1 [olaparib] | low solubility | 
Cc1nccn1CC1CCc2c(c3ccccc3n2C)C1=O (centres unmarked) [ondansetron hydrochloride] | water soluble | 
C=CC(=O)Nc1cc(Nc2nccc(-c3cn(C)c4ccccc34)n2)c(OC)cc1N(C)CCN(C)C [osimertinib] | insoluble in water | 
C1=C/COCc2cc(ccc2OCCN2CCCC2)Nc2nccc(n2)-c2cccc(c2)COC/1 [pacritinib] | insoluble in water | 
Cc1ccc(Nc2nccc(N(C)c3ccc4c(C)n(C)nc4c3)n2)cc1S(N)(=O)=O [pazopanib] | insoluble in water | 
Nc1cccc2c1C(=O)N(C1CCC(=O)NC1=O)C2=O (centres unmarked) [pomalidomide] |  | Solubility (all pH solutions): ~0.01 mg/mL (≈ 36.6 µM)
CO[C@]1(C(=O)N[C@@H](C)c2ccc(-n3cc(F)cn3)nc2)CC[C@H](c2nc(C)cc(Nc3cc(C)[nH]n3)n2)CC1 [pralsetinib] |  | Solubility (aqueous media, pH 1.99): 0.880 mg/mL to
CONC(=O)Nc1ccc(-c2sc3c(c2CN(C)C)c(=O)n(-c2ccc(OC)nn2)c(=O)n3Cc2c(F)cccc2F)cc1 [relugolix] |  | Solubility (in water at 25° C.): 0.04 mg per mL in
CN(C)C(=O)c1cc2cnc(Nc3ccc(N4CCNCC4)cn3)nc2n1C1CCCC1 [ribociclib] | insoluble in water | 
O=C(/C=C\n1cnc(-c2cc(C(F)(F)F)cc(C(F)(F)F)c2)n1)NNc1cnccn1 [selinexor] | insoluble in water | 
C=CC(=O)N1CCN(c2nc(=O)n(-c3c(C)ccnc3C(C)C)c3nc(-c4c(O)cccc4F)c(F)cc23)[C@@H](C)C1 [sotorasib] |  | Solubility (aqueous media, pH 6.8): 0.03 mg/mL (≈ 53.5 µM)
CCN(CC)CCNC(=O)c1c(C)[nH]c(/C=C2\C(=O)Nc3ccc(F)cc32)c1C [sunitinib malate] |  | Solubility (aqueous media over the range pH 1.2 to pH 6.8): is in excess of 25 mg/mL
Cn1ncnc1[C@H]1c2n[nH]c(=O)c3cc(F)cc(c23)N[C@@H]1c1ccc(F)cc1 [talazoparib tosylate] | insoluble in water | 
Cn1nnc2c(C(N)=O)ncn2c1=O [temozolomide] |  | Solubility (condition not given): 7 mg/mL (≈ 36100 µM)
CN1CCC(COc2cnc(-c3cccc(Cn4nc(-c5cccc(C#N)c5)ccc4=O)c3)nc2)CC1 [tepotinib] | insoluble in water | 
N=C1CCCN1Cc1[nH]c(=O)[nH]c(=O)c1Cl [tipiracil hydrochloride] | water soluble; water | 
